Data as given in patent US10487110B2, “Stabilized compounds having secondary structure motifs” (President and Fellows of Harvard College, priority 1999, dated 2019).
Bridge positions count the residues as written; N and C are the ends. Square brackets hold non-standard residues; d marks the D form. R‑13 = (R)-2-(2'-pentenyl)alanine; R‑14 = (R)-2-(2′-hexenyl)alanine; S‑14 = (S)-2-(2′-hexenyl)alanine; S‑16 = (S)-2-(2′-octenyl)alanine

Columns and labels:
trypsin = experiment: Peptide trypsin digest (cleavage rate constants); assay type: in vitro ADME; conditions: 10% EtOH in 50 mM Tris pH 8.3, room temperature; for Cleavage rate constant, Unmetathesized: unmetathesized peptide; for Cleavage rate constant, Metathesized and hydrogenated: metathesized and hydrogenated peptide
Procedure: Peptide trypsin digest: A typical peptide trypsin digest experiment was performed by adding 5 μL of a 20× trypsin solution in 1 mM HCl to a 100 μL solution of peptide at 9 μM in 10% EtOH in 50 mM Tris at pH 8.3. The reaction was allowed to proceed at room temperature for 30 min at which time it was quenched by adding 100 μL of a 1% trifluoroacetic acid solution and frozen on dry ice. The sample was then thawed and injected into a reverse phase HPLC on a C18 column for quantitation at 280 nm. The cleavage rate constants were obtained by performing the digest experiments at multiple trypsin concentrations and fitting to a kinetic model that is first order in both enzyme and substrate concentration.

[1] = Circular dichroism measure of helical content; assay type: physicochemical
Procedure: Circular dichroism: Circular dichroism spectra were collected on a Jasco J-710 spectropolarimeter at 4° C. A typical sample was prepared by lyophilizing a measured volume of peptide solution and then resuspending it in 3 ml of 0.1% TFA in water to obtain a solution with a 280 nm absorbance of approximately 0.06 absorbance units. The sample was placed in a 1 cm CD cuvette and the ultraviolet absorbance was measured. The circular dichroism spectrum was measured and a baseline CD spectrum of 0.1% TFA in water was subtracted from it. The baseline subtracted CD spectrum was then normalized using the 280 nm absorbance.

[2] = Sedimentation equilibrium (analytical centrifugation); assay type: physicochemical; conditions: conditions of the circular dichroism experiments, 4° C.
Procedure: Analytical centrifugation: Sedimentation Equilibrium Experiments were performed on a Beckman Optima XL-A analytical centrifuge. The samples were centrifuged at 35,000 RPM at 4° C. and monitored at 280 nm. The data was fit to a single species model. The sedimentation equilibrium experiments were run on the identical samples from which circular dichroism spectra were recorded.

[3] = crosslinked versus corresponding uncrosslinked modified peptide

Substance	Cleavage rate constant, Unmetathesized (trypsin) [M⁻¹ s⁻¹]	Cleavage rate constant, Metathesized and hydrogenated (trypsin) [M⁻¹ s⁻¹]	decrease of helical content following RCM [1, 3] [%]	also measured
Ac-EWAETAAAKFLAAHA-NH2 [Control, reference compound]	2.39			Cleavage rate constant, Unmetathesized (trypsin; listed as unmodified control peptide): 2.38 M⁻¹ s⁻¹; helical content (α-helicity) ([1]; circular dichroism, water containing 0.1% trifluoroacetic acid, 4° C.): ~40%
Ri,i+7S(9): Ac-EWAEyAAAKFLzAHA-NH2 (SEQ ID NO: 2), (y,z) = (R-13,S-14), 9 carbon crosslink (Ac-EWAE[R‑13]AAAKFL[S‑14]AHA-NH2; staple 5-12)		0.37	21	
Ri,i+7S(11): Ac-EWAEyAAAKFLzAHA-NH2 (SEQ ID NO: 2), (y,z) = (R-13,S-16), 11 carbon crosslink (Ac-EWAE[R‑13]AAAKFL[S‑16]AHA-NH2; staple 5-12)	0.50	0.058		helix stabilization (result in words) ([1]; circular dichroism): best helix stabilizer; increase of helical content following RCM ([1]; crosslinked versus corresponding uncrosslinked modified peptide, for Ri,i+7S(12) cis and trans double bond isomers): 26%; increase of helical structure compared to unmodified control peptide ([1]; versus unmodified control peptide): 44%; oligomeric state by sedimentation equilibrium [2]: monomeric
Ri,i+7S(12): Ac-EWAEyAAAKFLzAHA-NH2 (SEQ ID NO: 2), (y,z) = (R-14,S-16), 12 carbon crosslink; cis and trans isomers (Ac-EWAE[R‑14]AAAKFL[S‑16]AHA-NH2; staple 5-12; also: cis and trans olefin isomers)		0.12		
Ri,i+7S(10): Ac-EWAEyAAAKFLzAHA-NH2 (SEQ ID NO: 2), (y,z) = (R-14,S-14), 10 carbon crosslink (Ac-EWAE[R‑14]AAAKFL[S‑14]AHA-NH2; staple 5-12)		0.34	12	
